We go through eleven compounds from publication PMC10451648 (Antibiotics, 2023).

Series [1] relates to Proteinase K. Description: 0.002% (v/v) Proteinase K. As to conditions: 37 °C, up to 24 h.
Series [2] deals with multidrug-resistant P. aeruginosa (MDRP). Type of series: cell-based, Pseudomonas aeruginosa. The conditions noted are these: multidrug-resistant (MDRP, 18 h). On the procedure:
(§1) The antimicrobial activities of peptides 1–8 against Gram-positive Staphylococcus aureus, Gram-negative Escherichia coli DH5α, Pseudomonas aeruginosa, and multidrug-resistant P. aeruginosa (MDRP) were evaluated. The minimum inhibitory concentration (MIC) against these bacteria was measured as an indicator of antimicrobial activity, and the results are discussed in Table 2.
(§2) One type of Gram-positive bacteria, S. aureus NBRC 13276, and three Gram-negative bacteria, E. coli DH5α, P. aeruginosa NBRC 13275, and MDRP, were selected for the evaluation of the antimicrobial activity of the synthesized peptides. The selected bacterial strains were obtained from the Biological Resource Center, NITE (NBRC; Tokyo, Japan), and Escherichia coli DH5α cells were purchased from BioDynamics Laboratory, Inc. (Tokyo, Japan). The antimicrobial activities of the tested peptides 1–8 against each stain were examined by the standard broth microdilution method, as previously reported. Briefly, the bacteria were seeded and grown overnight at 37 °C on Agar media for other organisms i (Agar medium) and then collected with the media for other organisms ii (liquid medium), according to the 17th revision of Japanese Pharmacopoeia. Next, 10 μL of the peptide solution per well was added to each well of a sterile 96-well plate, and 90 μL per well of inoculation was mixed with 10^4 CFUs (colony forming units) per mL and added to each well, and the plate was incubated for 18 h at 35 °C.

Series [3] relates to P. aeruginosa NBRC 13275. The class given is cell-based, Pseudomonas aeruginosa. As to conditions: NBRC 13275, 18 h. How it is done: as §1, §2
Series [4] concerns Escherichia coli DH5α. The class given is cell-based. The conditions noted are these: broth microdilution, 10^4 CFUs per mL, 18 h at 35 °C; MIC = lowest concentration that completely inhibited bacterial growth; final conc. 0.39 to 100. On the procedure: as §1, §2
Series [5] deals with S. aureus NBRC 13276. The class given is cell-based, Staphylococcus aureus. How it is done: as §1, §2
The test system of series [6] is human red blood cells. In words: Hemolysis activity against red blood cells. As to conditions: human RBCs in 172 mM Tris-HCl pH 7.6, 30 min at 37 °C, absorbance 535 nm; DMSO = 0%, M-Lycotoxin = 100%; final peptide conc. 100 to 0.39. On the procedure:
AMPs primarily target microbial membranes, leading to their antimicrobial activity through membrane lysis. However, it is important to consider their potential effects on human cell membranes, as this could raise concerns regarding cytotoxicity. […] Hemolytic activity was assessed by measuring the absorption at 535 nm, which indicates the leakage of red blood cell cytoplasmic contents and hemoglobin.
Human red blood cells (RBCs) were supplied by the Japanese Red Cross Society (Tokyo, Japan). The hemolytic assay of the synthesized peptides was performed as previously reported. Briefly, 5.0 mL of the total erythrocytes were washed three times with 172 mM Tris-HCl buffer (pH = 7.6, wash buffer:WB) and 1.0 mL of precipitated erythrocytes was diluted with 9.0 mL of WB. Then, 0.5 mL of the suspension was diluted in WB, and 50 µL of RBC solution was incubated with 50 µL of each peptide for 30 min at 37 °C (final peptide conc. from 100 to 0.39 μM). The suspensions were then centrifuged at 400 rpm for 5 min. The absorbance of the supernatant was measured at a wavelength of 535 nm. M-Lycotoxin [22], which is a typical hemolytic toxic peptide derived from Wolf spider, was used as a positive control, and the absorbance of the sample from DMSO and M-Lycotoxin treatment was defined as 0 and 100%, respectively.

Series [7] in a line: in vitro. The conditions noted are these: 50% fetal bovine serum in PBS.
For series [8] the following is noted: PBS without FBS.
Where [9] appears, read: broth microdilution, 10^4 CFUs per mL, 18 h at 35 °C, MIC = lowest concentration that completely inhibited bacterial growth, final conc. 0.39 to 100.

Values after ≈ are worked out from the molar mass of the structure shown. “Also recorded” adds a separate entry of the source. Read-outs that look alike come from different tables or passages of the source. Square brackets hold non-standard residues; d marks the D form. Peptide text beside a SMILES is read from it. Api = NC1(C(=O)O)CCNCC1; Aib = CC(C)(N)C(=O)O

As to H-GIKKFLKS[Aib]KKFVK[Aib]FK-NH2, in series [1], the cleaved bond result is reported as “Phe5-Leu6, 24 h; also recorded: Phe16-Lys17”.

Consider `CC[C@H](C)[C@H](NC(=O)CN)C(=O)N[C@@H](CCCCN)C(=O)N[C@@H](CCCCN)C(=O)N[C@@H](Cc1ccccc1)C(=O)N[C@@H](CC(C)C)C(=O)N[C@@H](CCCCN)C(=O)N[C@@H](CO)C(=O)NC(C)(C)C(=O)N[C@@H](CCCCN)C(=O)N[C@@H](CCCCN)C(=O)N[C@@H](Cc1ccccc1)C(=O)N[C@H](C(=O)NC1(C(=O)NC(C)(C)C(=O)N[C@@H](Cc2ccccc2)C(=O)N[C@@H](CCCCN)C(N)=O)CCNCC1)C(C)C` [Peptide 7] (H-GIKKFLKS[Aib]KKFV[Api][Aib]FK-NH2), for which the “MIC, MDRP” value in series [2] was 6.25 µM (≈ 12.5 µg/mL). Further, the “MIC, P. aeruginosa, Gram(−)” value in series [3] stood at 3.125 µM (≈ 6.23 µg/mL). Also, in [4], the “MIC, E. Coli DH5α, Gram(−)” value turned out to be 1.56 µM (≈ 3.11 µg/mL). Moreover, in series [5] (setting [9]), the “MIC, S. aureus, Gram(+)” value stood at 12.5 µM (≈ 24.9 µg/mL). Besides, the “Hemolysis (concentration at which hemolytic activity is exhibited)” value (“Hemolysis” below) in series [6] turned out to be 12.5 µM.

Regarding `CC[C@H](C)[C@H](NC(=O)CN)C(=O)N[C@@H](CCCCN)C(=O)N[C@@H](CCCCN)C(=O)N[C@@H](Cc1ccccc1)C(=O)N[C@@H](CC(C)C)C(=O)NC1(C(=O)N[C@@H](CO)C(=O)NC(C)(C)C(=O)N[C@@H](CCCCN)C(=O)N[C@@H](CCCCN)C(=O)N[C@@H](Cc2ccccc2)C(=O)N[C@H](C(=O)N[C@@H](CCCCN)C(=O)NC(C)(C)C(=O)N[C@@H](Cc2ccccc2)C(=O)N[C@@H](CCCCN)C(N)=O)C(C)C)CCNCC1` [Peptide 4] (H-GIKKFL[Api]S[Aib]KKFVK[Aib]FK-NH2), the “MIC, MDRP” value in series [2] turned out to be 6.25 µM (≈ 12.5 µg/mL). Further, in series [3], the “MIC, P. aeruginosa, Gram(−)” value was 3.125 µM (≈ 6.23 µg/mL). Further, the “MIC, E. Coli DH5α, Gram(−)” value in [4] came to 1.56 µM (≈ 3.11 µg/mL). The “MIC, S. aureus, Gram(+)” value in series [5] (setting [9]) was 12.5 µM (≈ 24.9 µg/mL). The “Hemolysis” value in series [6] was found to be 12.5 µM.

For the compound “H-Gly-Ile-Lys-Lys-Phe-Leu-Api-Ser-Aib-Lys-Lys-Phe-Val-Lys-Aib-Phe-Lys-NH2”, the cleaved bond entry in [1] is “Phe16-Lys17, 24 h”.

On to “H-Gly-Ile-Lys-Api-Phe-Leu-Lys-Ser-Aib-Lys-Lys-Phe-Val-Lys-Aib-Phe-Lys-NH2”, for which, in [1], the cleaved bond result is on record as “Phe16-Lys17, 24 h”.

On to “H-Gly-Ile-Api-Lys-Phe-Leu-Lys-Ser-Aib-Lys-Lys-Phe-Val-Lys-Aib-Phe-Lys-NH2”, for which, in series [1], the cleaved bond entry was “Phe16-Lys17, 24 h”.

The compound `CC[C@H](C)[C@H](NC(=O)CN)C(=O)NC1(C(=O)N[C@@H](CCCCN)C(=O)N[C@@H](Cc2ccccc2)C(=O)N[C@@H](CC(C)C)C(=O)N[C@@H](CCCCN)C(=O)N[C@@H](CO)C(=O)NC(C)(C)C(=O)N[C@@H](CCCCN)C(=O)N[C@@H](CCCCN)C(=O)N[C@@H](Cc2ccccc2)C(=O)N[C@H](C(=O)N[C@@H](CCCCN)C(=O)NC(C)(C)C(=O)N[C@@H](Cc2ccccc2)C(=O)N[C@@H](CCCCN)C(N)=O)C(C)C)CCNCC1` [Peptide 2] (H-GI[Api]KFLKS[Aib]KKFVK[Aib]FK-NH2) displayed a residual amount after 24 h proteinase K treatment of more than 60%. Also, the fraction remaining at 24 h in [7] was determined as 70%. For the same compound, in series [3], the “MIC, P. aeruginosa, Gram(−)” value was determined as 3.125 µM (≈ 6.23 µg/mL). Moreover, the “Stability in PBS” value in [8] was “stable in PBS”. The “MIC, E. Coli DH5α, Gram(−)” value in series [4] was 3.125 µM (≈ 6.23 µg/mL). The “MIC, S. aureus, Gram(+)” value in series [5] (setting [9]) is 12.5 µM (≈ 24.9 µg/mL). Further, in series [6], the “Hemolysis” value is 12.5 µM.

Regarding `CC[C@H](C)[C@H](NC(=O)CN)C(=O)N[C@@H](CCCCN)C(=O)NC1(C(=O)N[C@@H](Cc2ccccc2)C(=O)N[C@@H](CC(C)C)C(=O)N[C@@H](CCCCN)C(=O)N[C@@H](CO)C(=O)NC(C)(C)C(=O)N[C@@H](CCCCN)C(=O)N[C@@H](CCCCN)C(=O)N[C@@H](Cc2ccccc2)C(=O)N[C@H](C(=O)N[C@@H](CCCCN)C(=O)NC(C)(C)C(=O)N[C@@H](Cc2ccccc2)C(=O)N[C@@H](CCCCN)C(N)=O)C(C)C)CCNCC1` [Peptide 3] (H-GIK[Api]FLKS[Aib]KKFVK[Aib]FK-NH2), the “MIC, P. aeruginosa, Gram(−)” value in [3] came out at 3.125 µM (≈ 6.23 µg/mL). For the same compound, the “MIC, E. Coli DH5α, Gram(−)” value in series [4] is 3.125 µM (≈ 6.23 µg/mL). For the same compound, the “MIC, S. aureus, Gram(+)” value in series [5] (NBRC 13276, 18 h) amounted to 25 µM (≈ 49.8 µg/mL). Further, the “Hemolysis” value in series [6] was found to be 25 µM.

As to `CC[C@H](C)[C@H](NC(=O)CN)C(=O)N[C@@H](CCCCN)C(=O)N[C@@H](CCCCN)C(=O)N[C@@H](Cc1ccccc1)C(=O)N[C@@H](CC(C)C)C(=O)N[C@@H](CCCCN)C(=O)N[C@@H](CO)C(=O)NC(C)(C)C(=O)N[C@@H](CCCCN)C(=O)NC1(C(=O)N[C@@H](Cc2ccccc2)C(=O)N[C@H](C(=O)N[C@@H](CCCCN)C(=O)NC(C)(C)C(=O)N[C@@H](Cc2ccccc2)C(=O)N[C@@H](CCCCN)C(N)=O)C(C)C)CCNCC1` [Peptide 6] (H-GIKKFLKS[Aib]K[Api]FVK[Aib]FK-NH2), the “MIC, MDRP” value in [2] stood at 6.25 µM (≈ 12.5 µg/mL). Also, the “MIC, P. aeruginosa, Gram(−)” value in [3] is 3.125 µM (≈ 6.23 µg/mL). The “MIC, E. Coli DH5α, Gram(−)” value in series [4] was determined as 1.56 µM (≈ 3.11 µg/mL). The “MIC, S. aureus, Gram(+)” value in series [5] (NBRC 13276, 18 h) came out at 12.5 µM (≈ 24.9 µg/mL). For the same compound, the “Hemolysis” value in series [6] stood at 50 µM.

Turning to `CC[C@H](C)[C@H](NC(=O)CN)C(=O)N[C@@H](CCCCN)C(=O)N[C@@H](CCCCN)C(=O)N[C@@H](Cc1ccccc1)C(=O)N[C@@H](CC(C)C)C(=O)N[C@@H](CCCCN)C(=O)N[C@@H](CO)C(=O)NC(C)(C)C(=O)N[C@@H](CCCCN)C(=O)N[C@@H](CCCCN)C(=O)N[C@@H](Cc1ccccc1)C(=O)N[C@H](C(=O)N[C@@H](CCCCN)C(=O)NC(C)(C)C(=O)N[C@@H](Cc1ccccc1)C(=O)NC1(C(N)=O)CCNCC1)C(C)C` [Peptide 8] (H-GIKKFLKS[Aib]KKFVK[Aib]F[Api]-NH2), the “MIC, MDRP” value in series [2] is 12.5 µM (≈ 24.9 µg/mL). Further, in series [3], the “MIC, P. aeruginosa, Gram(−)” value was determined as 3.125 µM (≈ 6.23 µg/mL). In addition, the “MIC, E. Coli DH5α, Gram(−)” value in [4] amounted to 3.125 µM (≈ 6.23 µg/mL). Moreover, the “MIC, S. aureus, Gram(+)” value in series [5] (NBRC 13276, 18 h) is 12.5 µM (≈ 24.9 µg/mL). Also, the “Hemolysis” value in [6] stood at 100 µM.

Take `CC[C@H](C)[C@H](NC(=O)CN)C(=O)N[C@@H](CCCCN)C(=O)N[C@@H](CCCCN)C(=O)N[C@@H](Cc1ccccc1)C(=O)N[C@@H](CC(C)C)C(=O)N[C@@H](CCCCN)C(=O)N[C@@H](CO)C(=O)NC(C)(C)C(=O)NC1(C(=O)N[C@@H](CCCCN)C(=O)N[C@@H](Cc2ccccc2)C(=O)N[C@H](C(=O)N[C@@H](CCCCN)C(=O)NC(C)(C)C(=O)N[C@@H](Cc2ccccc2)C(=O)N[C@@H](CCCCN)C(N)=O)C(C)C)CCNCC1` [Peptide 5] (H-GIKKFLKS[Aib][Api]KFVK[Aib]FK-NH2): the “MIC, MDRP” value in series [2] was 6.25 µM (≈ 12.5 µg/mL). Moreover, in series [3], the “MIC, P. aeruginosa, Gram(−)” value stood at 3.125 µM (≈ 6.23 µg/mL). Moreover, in [4], the “MIC, E. Coli DH5α, Gram(−)” value is 1.56 µM (≈ 3.11 µg/mL). Also, the “MIC, S. aureus, Gram(+)” value in series [5] (NBRC 13276, 18 h) is 25 µM (≈ 49.8 µg/mL). In addition, the “Hemolysis” value in [6] was determined as 50 µM.
